In US9018165B2, “Process for the synchronization of ovulation for timed breeding without heat detection” (priority 2003, dated 2015):

Assays:
mature postpartum sows = test: Intravulvar injection at estrus detection with AI in mature postpartum sows (Example 2); assay type: in vivo, swine; conditions: 50 mcg intravulvar at first estrus detection
Method: Sows were assigned randomly in blocks of two to either control or to be injected intravulvar with 50 mcg of deslorelin in SAIB at the time of estrus detection for sows first detected in estrus in the a.m. and 12 hours later for those first detected in estrus in the p.m. Treated animals were bred AI upon detected estrus and again 24 hours later if still in estrus. Controls received a saline injection on first detected estrus behavior estrus detection and were bred according to the farm's normal procedures.

postpartum sows = test: Timed injection 96 hours post-weaning and single timed insemination without estrus detection (Example 3); assay type: in vivo, swine; conditions: 50 mcg in SAIB 96 hours post-weaning; single insemination 28+/-2 hours later
Method: Approximately 170 postpartum sows were randomly divided into two equal groups comprised of controls and treated. Following weaning, the controls were detected for estrus and bred following the normal standard operating procedures for the farms on which they resided. The treated sows received a 50 mcg dose of deslorelin in SAIB at 96 hours post-weaning and were bred with a single insemination 28+/−2 hours later with no regard to estrus detection. The sows were examined for pregnancy by ultrasound at 21 days and slaughtered around 28 days post breeding. The entire reproductive tract was removed and corpora lutea and embryos were counted.

With CCNC(=O)[C@@H]1CCCN1C(=O)[C@H](CCCN=C(N)N)NC(=O)[C@H](CC(C)C)NC(=O)[C@@H](Cc1c[nH]c2ccccc12)NC(=O)[C@H](Cc1ccc(O)cc1)NC(=O)[C@H](CO)NC(=O)[C@H](Cc1c[nH]c2ccccc12)NC(=O)[C@H](Cc1cnc[nH]1)NC(=O)[C@@H]1CCC(=O)N1 [Deslorelin, deslorelin] the “difference in pregnancy rates, Control versus Treated (in words)” value (mature postpartum sows) was “no significant difference” and the “Embryo Survival” value (postpartum sows) was 64%.
